Among the data in ChEMBL document CHEMBL1123871, “Methotrexate analogues. 30. Dihydrofolate reductase inhibition and in vitro tumor cell growth inhibition by N epsilon-(haloacetyl)-L-lysine and N delta-(haloacetyl)-L-ornithine analogues and an acivicin analogue of methotrexate” (J Med Chem, 1987) are IC50 and Resistance values, retold here.

The test system of experiment [1] is L1210. The experiment can be described thus: Inhibition of L1210 cultured murine leukemia cell growth. The settings on record: Mus musculus. Type of experiment: functional, cell-based.
Experiment [2] has as its system L1210. The experiment is described as follows: Inhibition of L1210/R81 murine leukemia cell growth. The class given is functional, cell-based. The following applies: Mus musculus.
Experiment [3] can be described thus: Fold resistance calculated by dividing the IC50(L1210/R81) by the IC50(L1210).
The target in the next experiment is T1, Dihydrofolate reductase (Mus musculus, UniProt P00375).
T1 sequence (P00375 whole entry): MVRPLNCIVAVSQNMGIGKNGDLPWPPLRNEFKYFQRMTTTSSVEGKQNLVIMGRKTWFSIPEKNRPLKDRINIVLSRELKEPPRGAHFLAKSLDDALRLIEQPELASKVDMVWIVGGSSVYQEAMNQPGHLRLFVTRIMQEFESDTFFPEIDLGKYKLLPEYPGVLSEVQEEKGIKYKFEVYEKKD

The IC50 is the point on the concentration scale where inhibition reaches its midpoint.

Description for Dihydrofolate reductase: Inhibition of dihydrofolate reductase(DHFR) from L1210/R81 cells

Take `CN(Cc1cnc2nc(N)nc(N)c2n1)c1ccc(C(=O)NC(CCCCNC(=O)CBr)C(=O)O)cc1` (stereo not drawn): the IC50 came to 0.096 µM in the experiment on L1210 [1], 0.24 µM in the experiment on L1210 [2] and 0.072 µM at Dihydrofolate reductase. Besides, in experiment [3], the Resistance is 2500.

Consider `CN(Cc1cnc2nc(N)nc(N)c2n1)c1ccc(C(=O)NC(CCCNC(=O)CBr)C(=O)O)cc1` (stereo not drawn), for which the IC50 is 0.126 µM in the experiment with L1210 [1], 0.155 µM in the experiment on L1210 [2] and 0.046 µM at Dihydrofolate reductase. For the same compound, the Resistance in experiment [3] was 1200.

Compound `CN(Cc1cnc2nc(N)nc(N)c2n1)c1ccc(C(=O)N[C@@H](CCC(=O)O)C(=O)O)cc1` [METHOTREXATE] displayed an IC50 in the experiment on L1210 [1] of 0.005 µM. In addition, the Resistance in experiment [3] was 44000.

Consider `CN(Cc1cnc2nc(N)nc(N)c2n1)c1ccc(C(=O)NC(CCCNC(=O)CCl)C(=O)O)cc1` (stereo not drawn), for which the IC50 came to 0.062 µM in the experiment with L1210 [1], 0.105 µM in the experiment with L1210 [2] and 0.032 µM against Dihydrofolate reductase. In experiment [3], the Resistance is 1700.

As to `CN(Cc1cnc2nc(N)nc(N)c2n1)c1ccc(C(=O)NC(CCCCNC(=O)CCl)C(=O)O)cc1` (stereo not drawn), the IC50 was determined as 0.033 µM in the experiment with L1210 [1], 0.093 µM in the experiment on L1210 [2] and 0.032 µM against Dihydrofolate reductase. For the same compound, the Resistance in experiment [3] is 2800.
